The values that follow come from patent publication US20250177376A1, “ALPHA 2 ADRENERGIC RECEPTOR BLOCKADE FOR THE TREATMENT OF C. DIFFICILE COLITIS” (University of Virginia Patent Foundation, priority 2022, published 2025).

One assay concerns cytokines. Briefly: Luminex 32-plex cytokine levels in cecal tissue of CDI mice. The note with it: IL-2, IL-4, IL-10, IL-12 (p40, p70), IL-15, MIP-1a, MIP-1b, LIX, VEGF, IL-5, GM-CSF, M-CSF, G-CSF, Eotaxin, IL-1b, IL-6, LIF, IP-10, KC, MCP-1, MIP2, MIG, IFNγ, IL-1a, IL-9, TNFa.
Assay [1] relates to eosinophils, neutrophils, monocytes. Briefly: Infiltrating colonic immune cells in CDI mice by flow cytometry. Conditions: for monocyte levels / neutrophil levels: 6-OHDA vs PBS/saline, desipramine vs 6-OHDA alone. For orientation: A flow cytometer gives signals particle by particle.
Protocol: To determine whether the sympathetic nervous system was necessary for a mounting of the inflammatory response, the infiltrating immune cell response in 6-OHDA-treated mice was measured by flow cytometry.
In assay [2] the test system is C. difficile infection (CDI). Briefly: Mouse CDI model: survival, weight loss, clinical score. It is filed as in vivo, mice. Conditions: for clinical score versus ORA-PLUS vehicle: oral gavage days -1, 0, 1, scores at days 2-8.
The subject of the next assay is toxin A/B. Description: Toxin A/B ELISA of cecal contents. The class given is in vivo, C. difficile. The note with it: cecal contents 2 days post-infection. The procedure:
ADRA2A inhibition with RX 821002 was also tested for any affects on toxin A/B levels in mice. Briefly, […] in cecal contents of mice sacrificed 2 days post-infection was determined by a Toxin A/B ELISA from TECHLAB, Inc. (Catalog No. TL5025). Prior to the ELISA, cecal contents were resuspended in PBS by mass. The Toxin A/B ELISA was performed according to the manufacturer's instructions. Mice were treated with RX 821002 and toxin A/B levels in CDI cecal content were determined.

Assay [3] relates to C. difficile. Description: C. difficile counts (CFU) from cecal contents. It is filed as in vivo. The note with it: cecal contents at 18 hours post-infection. Here is the method: C. difficile counts were quantified from cecal contents at 18 hours post-infection. Cecal contents were resuspended by mass in anaerobic PBS. […] Colony counts were made manually.
In assay [4] the test system is C. difficile. Briefly: C. difficile colonization in cecal contents by GDH ELISA. The class given is in vivo. Conditions: cecal contents 2 days post-infection. The procedure: CDI colonization levels were also determined in PBS-treated mice (negative control) and mice treated with RX 821002. Briefly, C. difficile colonization in cecal contents of mice sacrificed 2 days post-infection was determined by a GDH ELISA from […], Inc. (Blacksburg, Virginia, United States of America; Catalog No. TL5025). Prior to the ELISA, cecal contents were resuspended in PBS by mass. The GDH ELISA was performed according to the manufacturer's instructions.

[5] abbreviates: CDI mouse model, 6-OHDA 80 mg/kg i.p., propranolol, SR 59230A, RX 821002 10 mg/kg i.p., nepicastat oral gavage.

Each structure is given as a SMILES string. Where “and” joins values, the source holds several entries; their conditions need not be identical. Identical values can stand only once. Entries after “also recorded” stand apart in the source; their conditions may differ. Counter-ions that a name gives are not always drawn.

Protocol for cytokines: The levels of numerous cytokines were tested in PBS-treated mice and mice administered 6-OHDA.

As to `NCCc1cc(O)c(O)cc1O` [6-OHDA, 6-hydroxydopamine], the “cytokine levels versus PBS-treated mice” value in the assay on cytokines was “statistically significantly reduced; also recorded: lower amounts of cytokines”. In the assay on cytokines (listed as 6-hydroxydopamine), the “cytokine levels versus PBS-treated mice” value was “block in pro-inflammatory cytokine response”. For the same compound, in assay [1], the monocyte levels entry is given as “not significantly reduced” and the neutrophil levels entry is listed as “significantly reduced; also recorded: less representative of the colonic immune cells”. Further, the eosinophil levels entry in assay [1] (vs PBS/Saline) is reported as “did not reach statistical significance”. Further, in assay [2] (mouse, in vivo), the “effect on survival / CDI-induced mortality versus negative control” value is recorded as “strikingly ameliorated the incidence of mortality; also recorded: complete protection from death”, the “mice still alive through day 5 post-infection” value is listed as 100% and the “weight loss versus control” value is given as “significantly (p<0.001) reduced; also recorded: strikingly ameliorated”. In addition, the “mice still alive at day 7 post-infection” value in assay [2] (mouse, in vivo, ip, 80 mg/kg) was 90% and 80%.
In the case of `COC(=O)[C@@H]1[C@H]2C[C@H]3c4[nH]c5ccccc5c4CCN3C[C@@H]2CC[C@@H]1O` [yohimbine, methyl(1S,15R,18S,19R,20S)-18-hydroxy-1,3,11,12,14,15,16,17,18,19,20,21-dodecahydroyohimban-19-carboxylate], the “effect on survival / CDI-induced mortality versus negative control” value in assay [2] (setting [5]) is on record as “statistically significant amelioration of CDI induced mortality”.
With `CCc1ccccc1OC[C@@H](O)CN[C@H]1CCCc2ccccc21` [SR 59230A, (2S)-1-(2-ethylphenoxy)-3-[[(1S)-1,2,3,4-tetrahydronaphthalen-1-yl]amino]propan-2-ol], the “effect on survival / CDI-induced mortality versus negative control” value in assay [2] (setting [5]) is recorded as “increased the incidence of mortality; also recorded: exacerbated CDI disease progression”. In addition, the “mice dead prior to day 3 post-infection” value in assay [2] (CDI mouse model, SR 59230A 10 mg/kg i.p.) is listed as 100%.
In the case of `CNCCCN1c2ccccc2CCc2ccccc21` [desipramine, 3-(10,11-dihydro-5H-dibenzo[b,f]azepin-5-yl)-N-methylpropan-1-amine], in assay [1], the monocyte levels result is “statistically significant elevation” and the neutrophil levels result was “negated this reduction”. Further, the “effect on survival / CDI-induced mortality versus negative control” value in assay [2] (mouse, in vivo) was “prevented the protective effect of 6-OHDA on the incidence of mortality”.
Take `COC1(C2=NCCN2)COc2ccccc2O1` (centres unmarked) [RX 821002, 2-(3-methoxy-2H-1,4-benzodioxin-3-yl)-4,5-dihydro-1H-imidazole]: the “toxin A/B levels in CDI cecal content” value with toxin A/B is “reduced”. In addition, the “C. difficile burden, colony-forming units (CFU)/mg/ml, versus PBS” value in the assay with C. difficile [3] is “no difference”. The “CDI colonization (GDH ELISA) versus PBS” value in the assay with C. difficile [4] is recorded as “no effect”. Besides, the “effect on survival / CDI-induced mortality versus negative control” value in assay [2] (setting [5]) is listed as “statistically significant difference in percent survival; also recorded: drastically reduced; also recorded: ameliorated CDI induced mortality; also recorded: protection”.
In the case of `NCc1c[nH]c(=S)n1[C@H]1CCc2c(F)cc(F)cc2C1` [nepicastat hydrochloride, 5-(Aminomethyl)-1-[(2S)-5,7-difluoro-1,2,3,4-tetrahydro-2-naphthalenyl]-1,3-dihydro-2H-imidazole-2-thione], the “effect on survival / CDI-induced mortality versus negative control” value in assay [2] (setting [5]) is on record as “protected against CDI-induced mortality; also recorded: significantly improved survival”; in assay [2] (CDI mouse model, 6-OHDA 80 mg/kg i.p., propranolol, SR 59230A, RX 821002 10 mg/kg i.p., nepicastat oral gavage, listed as nepicastat), “greatly reduced the incidence of mortality”. In addition, the “clinical score versus ORA-PLUS vehicle” value is given as “statistically significantly lower” in assay [2] (CDI mouse model) and “significantly better clinical scores” in assay [2] (CDI mouse model, listed as Nepicastat).
